According to US20230340012A1, “NATURAL AND SYNTHETIC COMPOUNDS FOR TREATING CANCER AND OTHER DISEASES” (PACIFIC ARROW LIMITED, priority 2009, published 2023):

System: cancer cells
Test: MTT cytotoxic assay of esterification products (Cytotoxicity activity)
Assay type: cell-based, human
Procedure, shortened: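 Cytotoxicity was read by MTT (Carmichael method, modified), with cells seeded 24 h ahead of treatment. Sixteen human cancer lines spanning bone, lung, bladder, ovary, colon, pancreas, prostate, skin, mouth, kidney, breast, liver, brain, leukemia and cervix were used. Test samples were acyl chloride esterification products of triterpenes, as mixtures or HPLC-purified compounds.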

[1] = MTT cytotoxic assay, isolated esterification products of E4A
[2] = esterification products isolated with HPLC, graded strong / moderate / weak
[3] = E4A esterified with Cinnamoyl chloride (Cin = Cinnamoyl), compounds isolated with HPLC
[4] = E4A esterified with Crotonoyl chloride (Cro = Crotonoyl), compounds isolated with HPLC
[5] = E4A esterified with 2-propenoyl chloride (Ppe = Propenoyl), compounds isolated with HPLC
[6] = E4A esterified with Propionyl chloride (Ppi = Propionyl), compounds isolated with HPLC
[7] = E4A esterified with benzoyl chloride (Ben = benzoyl), compounds isolated with HPLC
[8] = esterification products of core compound E4A with (2E)-2-pentenoyl chloride (2pe = 2-pentenoyl)
[9] = esterification products of core compound E4A with Butyryl chloride (But = Butyryl)
[10] = esterification products of core compound E4A with Decanoyl chloride (Dec = Decanoyl)
[11] = esterification products of core compound E4A with Isobutyryl chloride (Iso = Isobutyryl)
[12] = esterification products of core compound E4A with Myristoyl chloride (Myr = Myristoyl)
[13] = esterification products of core compound E4A with Octanoyl chloride (Oct = Octanoyl)
[14] = E4A esterified with Acetyl chloride (Acy = Acetyl), compounds isolated with HPLC

SMILES | Cytotoxicity activity [1] | Cytotoxicity activity [2] | further results
CC=C(C)C(=O)OCC1(C)C(O)CCC2(C)C1CCC1(C)C2CC=C2C3CC(C)(C)C(O)C(O)C3(COC(=O)C(C)=CC)C(OC(=O)C(C)=CC)CC21C (stereo not shown) [Compound A7] | moderate |  | 
CC=C(C)C(=O)OCC1(C)C(OC(C)=O)CCC2(C)C1CCC1(C)C2CC=C2C3CC(C)(C)C(O)C(O)C3(COC(=O)C(C)=CC)C(O)CC21C (stereo not shown) [Tig—R—Acy—4] |  | moderate | 
CC1(C)CC2C3=CCC4C5(C)CCC(OC(=O)C=Cc6ccccc6)C(C)(COC(=O)C=Cc6ccccc6)C5CCC4(C)C3(C)CC(O)C2(CO)C(O)C1O (stereo not shown) [Compound J31] |  |  | Cytotoxicity activity [3]: moderate
C=CCCC(=O)OC1C(O)C(C)(C)CC2C3=CCC4C5(C)CCC(O)C(C)(COC(=O)C(C)=CC)C5CCC4(C)C3(C)CC(O)C21CO (stereo not shown) [Tig—Pen—6] |  | moderate | 
CC=C(C)C(=O)OCC1(C)C(OC(=O)C(C)=CC)CCC2(C)C1CCC1(C)C2CC=C2C3CC(C)(C)C(O)C(OC(=O)C(C)=CC)C3(COC(=O)C(C)=CC)C(O)CC21C (stereo not shown) [Compound A14] | weak |  | 
CC=CC(=O)OCC1(C)C(O)CCC2(C)C1CCC1(C)C2CC=C2C3CC(C)(C)C(OC(=O)C=CC)C(O)C3(COC(=O)C=CC)C(OC(=O)C=CC)CC21C (stereo not shown) [Compound I13] |  |  | Cytotoxicity activity [4]: weak
CC1(C)CC2C3=CCC4C5(C)CCC(O)C(C)(COC(=O)c6ccccc6)C5CCC4(C)C3(C)CC(O)C2(CO)C(O)C1OC(=O)c1ccccc1 (stereo not shown) [Compound K29] |  |  | Cytotoxicity activity [5]: moderate; Cytotoxicity activity [6]: moderate; Cytotoxicity activity [7]: moderate; Cytotoxicity activity [8]: moderate; Cytotoxicity activity [9]: moderate; Cytotoxicity activity [10]: moderate; Cytotoxicity activity [11]: moderate; Cytotoxicity activity [12]: moderate; Cytotoxicity activity [13]: moderate
CC=C(C)C(=O)OCC1(C)C(OC(=O)C(C)=CC)CCC2(C)C1CCC1(C)C2CC=C2C3CC(C)(C)C(O)C(OC(=O)C(C)=CC)C3(COC(=O)C(C)=CC)C(OC(=O)C(C)=CC)CC21C (stereo not shown) [Compound A18] | weak |  | 
CC=C(C)C(=O)OCC1(C)C(O)CCC2(C)C1CCC1(C)C2CC=C2C3CC(C)(C)C(OC(=O)C(C)=CC)C(O)C3(CO)C(O)CC21C (stereo not shown) [Tig—Ang—5] |  | moderate | 
CC=C(C)C(=O)OCC1(C)C(O)CCC2(C)C1CCC1(C)C2CC=C2C3CC(C)(C)C(O)C(OC(=O)C(CC)CC)C3(COC(=O)C(C)=CC)C(O)CC21C (stereo not shown) [Tig—R—Eth—3] |  | moderate | 
CC=C(C)C(=O)OCC1(C)C(O)CCC2(C)C1CCC1(C)C2CC=C2C3CC(C)(C)C(OC(=O)C(CC)CC)C(O)C3(COC(=O)C(C)=CC)C(O)CC21C (stereo not shown) [Tig—R—Eth—2] |  | moderate | 
CC(=O)OCC1(C)C(OC(C)=O)CCC2(C)C1CCC1(C)C2CC=C2C3CC(C)(C)C(O)C(O)C3(COC(C)=O)C(O)CC21C (stereo not shown) [Compound H6] |  |  | Cytotoxicity activity [14]: moderate
CC1(C)CC2C3=CCC4C5(C)CCC(O)C(C)(CO)C5CCC4(C)C3(C)CC(OC(=O)C=Cc3ccccc3)C2(CO)C(OC(=O)C=Cc2ccccc2)C1OC(=O)C=Cc1ccccc1 (stereo not shown) [Compound J22] |  |  | Cytotoxicity activity [3]: moderate
CC=C(C)C(=O)OCC1(C)C(O)CCC2(C)C1CCC1(C)C2CC=C2C3CC(C)(C)C(O)C(OC(=O)C=C(C)C)C3(CO)C(O)CC21C (stereo not shown) [Tig—Sen—6] |  |  | Cytotoxicity activity (esterification products of E4A—Tig—N with senecioyl chloride): moderate
CC=C(C)C(=O)OCC1(C)C(O)CCC2(C)C1CCC1(C)C2CC=C2C3CC(C)(C)C(OC(=O)C=C(C)C)C(OC(=O)C=C(C)C)C3(COC(=O)C(C)=CC)C(O)CC21C (stereo not shown) [Tig—R—Sen—1] |  | weak | 
CC=CC(=O)OCC1(C)C(OC(=O)C=CC)CCC2(C)C1CCC1(C)C2CC=C2C3CC(C)(C)C(O)C(OC(=O)C=CC)C3(COC(=O)C=CC)C(OC(=O)C=CC)CC21C (stereo not shown) [Compound I18] |  |  | Cytotoxicity activity [4]: weak
CC=C(C)C(=O)OCC1(C)C(O)CCC2(C)C1CCC1(C)C2CC=C2C3CC(C)(C)C(O)C(OC(=O)C(C)=CC)C3(COC(=O)C(C)=CC)C(O)CC21C (stereo not shown) [Compound A5] | moderate |  | 
CC=C(C)C(=O)OCC1(C)C(O)CCC2(C)C1CCC1(C)C2CC=C2C3CC(C)(C)C(O)C(OC(=O)C(C)=CC)C3(COC(=O)C(C)=CC)C(OC(=O)C(C)=CC)CC21C (stereo not shown) [Compound A12] | weak |  | 
CC=C(C)C(=O)OCC1(C)C(OC(=O)C(CC)CC)CCC2(C)C1CCC1(C)C2CC=C2C3CC(C)(C)C(O)C(O)C3(COC(=O)C(C)=CC)C(O)CC21C (stereo not shown) [Tig—R—Eth—4] |  | moderate | 
CC(=O)OC1C(OC(C)=O)C2(CO)C(O)CC3(C)C(=CCC4C5(C)CCC(O)C(C)(CO)C5CCC43C)C2CC1(C)C (stereo not shown) [Compound H24] |  |  | Cytotoxicity activity [14]: moderate
C=CCCC(=O)OCC12C(O)CC3(C)C(=CCC4C5(C)CCC(O)C(C)(CO)C5CCC43C)C1CC(C)(C)C(OC(=O)CCC=C)C2OC(=O)CCC=C (stereo not shown) [Compound C20] | moderate |  | 

SMILES | Cytotoxicity activity [1] | Cytotoxicity activity [2] | further results
CC=C(C)C(=O)OCC1(C)C(OC(C)=O)CCC2(C)C1CCC1(C)C2CC=C2C3CC(C)(C)C(O)C(O)C3(COC(C)=O)C(O)CC21C (stereo not shown) [Tig—Acy—4] |  | moderate | 
CCC(CC)C(=O)OCC12C(O)CC3(C)C(=CCC4C5(C)CCC(O)C(C)(CO)C5CCC43C)C1CC(C)(C)C(O)C2OC(=O)C(CC)CC (stereo not shown) [Compound E26] | moderate |  | 
CC(C)=CC(=O)OCC1(C)C(O)CCC2(C)C1CCC1(C)C2CC=C2C3CC(C)(C)C(O)C(O)C3(CO)C(O)CC21C (stereo not shown) [Compound B1] | moderate |  | 
CC=C(C)C(=O)OCC1(C)C(O)CCC2(C)C1CCC1(C)C2CC=C2C3CC(C)(C)C(OC(=O)CCCCC)C(O)C3(CO)C(O)CC21C (stereo not shown) [Tig—Hex—5] |  | moderate | 
C=CCCC(=O)OC1C(O)C(C)(C)CC2C3=CCC4C5(C)CCC(O)C(C)(COC(=O)C(C)=CC)C5CCC4(C)C3(C)CC(O)C21COC(=O)C(C)=CC (stereo not shown) [Tig—R—Pen—3] |  | moderate | 
CC=C(C)C(=O)OCC1(C)C(OC(=O)CCCCC)CCC2(C)C1CCC1(C)C2CC=C2C3CC(C)(C)C(O)C(O)C3(COC(=O)C(C)=CC)C(O)CC21C (stereo not shown) [Tig—R—Hex—4] |  | moderate | 
CC(=O)OCC1(C)C(O)CCC2(C)C1CCC1(C)C2CC=C2C3CC(C)(C)C(O)C(O)C3(COC(C)=O)C(O)CC21C (stereo not shown) [Compound H3] |  |  | Cytotoxicity activity [14]: strong
CC=CC(=O)OCC1(C)C(O)CCC2(C)C1CCC1(C)C2CC=C2C3CC(C)(C)C(OC(=O)C=CC)C(OC(=O)C=CC)C3(CO)C(O)CC21C (stereo not shown) [Compound I21] |  |  | Cytotoxicity activity [4]: moderate
CC=C(C)C(=O)OCC1(C)C(OC(=O)C=Cc2ccccc2)CCC2(C)C1CCC1(C)C2CC=C2C3CC(C)(C)C(OC(=O)C=Cc4ccccc4)C(O)C3(COC(=O)C(C)=CC)C(O)CC21C (stereo not shown) [Tig—R—Cin—5] |  | weak | 
CCC(CC)C(=O)OCC1(C)C(OC(=O)C(CC)CC)CCC2(C)C1CCC1(C)C2CC=C2C3CC(C)(C)C(OC(=O)C(CC)CC)C(O)C3(COC(=O)C(CC)CC)C(O)CC21C (stereo not shown) [Compound E11] | weak |  | 
CC(C)=CC(=O)OCC1(C)C(O)CCC2(C)C1CCC1(C)C2CC=C2C3CC(C)(C)C(O)C(O)C3(CO)C(OC(=O)C=C(C)C)CC21C (stereo not shown) [Compound B32] | moderate |  | 
CC=C(C)C(=O)OCC1(C)C(O)CCC2(C)C1CCC1(C)C2CC=C2C3CC(C)(C)C(O)C(O)C3(CO)C(O)CC21C (stereo not shown) [Compound A1] | moderate |  | 
C=CCCC(=O)OCC12C(O)CC3(C)C(=CCC4C5(C)CCC(O)C(C)(COC(=O)C(C)=CC)C5CCC43C)C1CC(C)(C)C(O)C2OC(=O)CCC=C (stereo not shown) [Tig—Pen—3] |  | moderate | 
C=CCCC(=O)OC1C(OC(=O)CCC=C)C2(CO)C(O)CC3(C)C(=CCC4C5(C)CCC(OC(=O)CCC=C)C(C)(CO)C5CCC43C)C2CC1(C)C (stereo not shown) [Compound C23] | moderate |  | 
CC=C(C)C(=O)OCC1(C)C(O)CCC2(C)C1CCC1(C)C2CC=C2C3CC(C)(C)C(OC(=O)C=C(C)C)C(O)C3(COC(=O)C(C)=CC)C(O)CC21C (stereo not shown) [Tig—R—Sen—2] |  | moderate | 
CC(C)=CC(=O)OCC1(C)C(OC(=O)C=C(C)C)CCC2(C)C1CCC1(C)C2CC=C2C3CC(C)(C)C(OC(=O)C=C(C)C)C(O)C3(COC(=O)C=C(C)C)C(OC(=O)C=C(C)C)CC21C (stereo not shown) [Compound B17] | weak |  | 
CC(=O)OCC12C(O)CC3(C)C(=CCC4C5(C)CCC(O)C(C)(CO)C5CCC43C)C1CC(C)(C)C(O)C2O (stereo not shown) [Compound H2] |  |  | Cytotoxicity activity [14]: moderate
CC(=O)OCC12C(O)CC3(C)C(=CCC4C5(C)CCC(O)C(C)(CO)C5CCC43C)C1CC(C)(C)C(OC(C)=O)C2OC(C)=O (stereo not shown) [Compound H20] |  |  | Cytotoxicity activity [14]: moderate
C=CCCC(=O)OCC1(C)C(OC(=O)CCC=C)CCC2(C)C1CCC1(C)C2CC=C2C3CC(C)(C)C(O)C(OC(=O)CCC=C)C3(COC(=O)CCC=C)C(O)CC21C (stereo not shown) [Compound C14] | weak |  | 
CC(C)=CC(=O)OCC12C(O)CC3(C)C(=CCC4C5(C)CCC(O)C(C)(CO)C5CCC43C)C1CC(C)(C)C(OC(=O)C=C(C)C)C2OC(=O)C=C(C)C (stereo not shown) [Compound B20] | moderate |  | 
CC1(C)CC2C3=CCC4C5(C)CCC(O)C(C)(CO)C5CCC4(C)C3(C)CC(OC(=O)c3ccccc3)C2(CO)C(OC(=O)c2ccccc2)C1OC(=O)c1ccccc1 (stereo not shown) [Compound K22] |  |  | Cytotoxicity activity [5]: moderate; Cytotoxicity activity [6]: moderate; Cytotoxicity activity [7]: moderate; Cytotoxicity activity [8]: moderate; Cytotoxicity activity [9]: moderate; Cytotoxicity activity [10]: moderate; Cytotoxicity activity [11]: moderate; Cytotoxicity activity [12]: moderate; Cytotoxicity activity [13]: moderate
